PMC7076352 (Pharmaceutics, 2020)

Legend:
in vivo = test: in vivo; parameters: species or system Sprague-Dawley (SD) rats; conditions: Sprague-Dawley, plasma, rat
Description: At each time, 0.5 mL of blood was collected in the heparin sodium tubes. Plasma was separated by centrifugation at 4000 rpm for 10 min and stored below −80 °C until bioanalysis. Oasis PRiME HLB SPE cartridges (1 cc/30 mg, Waters, Milford, MA, USA) were used to process the plasma samples (Supplementary Materials).
The generic layout of instrumentation setup of the LVDI-UHPLC-MS/MS was conducted on a Shimadzu UHPLC system consisting of two LC-20ADXR pumps, a DGU-20A3R degasser, and a CBM-20A controller (Kyoto, Japan) with a SCIEX 4500 QTRAP mass spectrometer mounted with an electron spray ionization (ESI) interface as well as an electronic 6-port/2-channel valve (Foster City, CA, USA). Analyst software package (version 1.6.2, SCIEX) was implemented to control and synchronize the entire system, and also for data acquisition and processing. A single analytical run was fragmented into two phases, namely, loading and elution phases, by switching the electronic valve (Figure 2). At the loading phase, the valve was maintained at A-channel. The specimen aliquot of large volume delivered from the auto-sampler was captured onto a guard column. Meanwhile, the pumps were responsible for delivering the mobile phase at a high flow rate, aiming to dilute the sample solvent, thus facilitating the candidate constituents to concentrate on the pre-guard column. Then, the valve was automatically switched to the B-channel to trigger the elution phase. The trapped components were flushed from the pre-guard column into an analytical column, and underwent multiple reaction monitoring (MRM) analysis on the optimized LC gradients. The detailed information of LVDI-UHPLC-MS/MS analysis for pharmacokinetic and cocktail studies is shown in the Supplementary Materials section.

CYP2C19 = test: In vitro cocktail CYP450 activity assay in rat liver microsomes, CYP2C19 (omeprazole probe)
Description: (§1) (OHBUP-[D6]) and 5 nM 4′-hydroxydiclofenac-[^13C6] (OHDIC-[^13C6]) as internal standards (ISs). […]
(§2) standard addition experiments. Each group included four concentration levels. For the PK […]
(§3) The probe compounds, viz. […]
(§4) chosen after incubating all the recruited substrates. In order to assure the linear relationship […]
(§5) The incubation system was also optimized in terms of substrate concentrations. The substrates concentrations of […]

CYP2B6 = test: In vitro cocktail CYP450 activity assay in rat liver microsomes, CYP2B6 (bupropion probe)
Description: as §1, §2, §3, §4, §5

CYP2C9 = test: In vitro cocktail CYP450 activity assay in rat liver microsomes, CYP2C9 (tolbutamide probe)
Description: as §1, §2, §3, §4, §5

CYP2D6 = test: in vitro; conditions: Sprague-Dawley, rat
Description: as §1, §2, §3, §4, §5

CYP3A4 = test: in vitro
Description: as §1, §2, §3, §4, §5

CYP1A2 = biological target: T1, CYP1A2 (Rattus norvegicus, UniProt P04799); test: In vitro cocktail CYP450 activity assay in rat liver microsomes, CYP1A2 (phenacetin probe)
T1 sequence (P04799 1-513): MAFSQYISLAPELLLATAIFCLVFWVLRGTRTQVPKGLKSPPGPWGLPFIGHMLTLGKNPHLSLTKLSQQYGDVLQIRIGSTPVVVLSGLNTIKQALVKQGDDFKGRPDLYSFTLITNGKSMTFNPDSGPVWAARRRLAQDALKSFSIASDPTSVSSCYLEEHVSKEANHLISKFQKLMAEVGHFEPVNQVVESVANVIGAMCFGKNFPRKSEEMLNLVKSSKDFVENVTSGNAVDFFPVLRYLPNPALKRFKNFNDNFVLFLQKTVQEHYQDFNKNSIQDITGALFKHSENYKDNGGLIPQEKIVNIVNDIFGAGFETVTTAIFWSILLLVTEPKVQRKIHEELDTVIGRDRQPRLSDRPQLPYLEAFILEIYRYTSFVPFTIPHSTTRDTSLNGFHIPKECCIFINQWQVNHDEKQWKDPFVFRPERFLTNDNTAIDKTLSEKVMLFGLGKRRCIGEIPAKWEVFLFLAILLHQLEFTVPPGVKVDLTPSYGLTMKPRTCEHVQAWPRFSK
Description: as §1, §2, §3, §4, §5

CYP2E1 [1] = biological target: T2, CYP2E1 (Rattus norvegicus, UniProt P05182); conditions: IC50 CYP2E1, single components; RLM 0.2 mg/mL, 15 min, triplicate, mean ± SD
Description: (§6) For the cocktail assay, the activity is expressed as the percentage of activity remaining comparing with that of a control sample containing no inhibitor. […] All the data were described as mean ± standard deviation (SD). Normality assumptions were tested by the Kolmogorov–Smirnov statistic setting p = 0.10 as the limit for rejection of the null hypothesis of normality. If the distribution of the data was normal with equal variances, a two-sided test was performed at the 5% level of significance. The Welch’s correction was then applied when the underlying variances were not equal. When the assumption of normality must be rejected, the Mann-Whitney test, a non-parametric equivalent of the independent-measures t-test, was used.

CYP2E1 [2] = biological target: T2, CYP2E1; conditions: Sprague-Dawley, rat, 15 min, pH 7.4
Description: as §6

[3] = at the Cmax level in rat plasma, calculated from the dose–response curve

T2 sequence (P05182 whole entry): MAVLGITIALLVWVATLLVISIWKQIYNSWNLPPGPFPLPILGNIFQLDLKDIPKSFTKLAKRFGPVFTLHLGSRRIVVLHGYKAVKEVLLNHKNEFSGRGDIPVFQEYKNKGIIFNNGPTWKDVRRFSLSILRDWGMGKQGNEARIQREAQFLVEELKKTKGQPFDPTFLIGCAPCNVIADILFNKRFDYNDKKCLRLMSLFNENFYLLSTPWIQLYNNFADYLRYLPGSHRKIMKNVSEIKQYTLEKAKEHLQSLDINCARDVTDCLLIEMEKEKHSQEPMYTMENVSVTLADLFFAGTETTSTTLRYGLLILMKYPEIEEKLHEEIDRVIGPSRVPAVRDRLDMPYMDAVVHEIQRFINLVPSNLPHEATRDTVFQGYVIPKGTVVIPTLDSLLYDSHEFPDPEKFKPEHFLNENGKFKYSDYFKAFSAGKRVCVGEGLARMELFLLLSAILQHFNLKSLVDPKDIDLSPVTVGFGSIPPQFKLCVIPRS

Q: For `CC(C)=CCC[C@](C)(O[C@@H]1O[C@H](CO)[C@@H](O)[C@H](O)[C@H]1O)[C@H]1CC[C@]2(C)[C@@H]1[C@H](O)C[C@@H]1[C@@]3(C)CC[C@H](O)C(C)(C)[C@@H]3[C@@H](O[C@@H]3O[C@H](CO)[C@@H](O)[C@H](O)[C@H]3O)C[C@]12C` [GRg1, ginsenoside Rg1], which concentration at […] (in vivo; 0.083 h after oral CNP) is on record?
A: 0.38 ± 0.15 ng/mL

Q: What about the concentration at 0.25 h (in vivo; 0.25 h after oral CNP) of the same compound?
A: 0.48 ± 0.07 ng/mL

Q: And the concentration at 0.5 h (in vivo; 0.5 h after oral CNP)?
A: 0.53 ± 0.37 ng/mL

Q: And the concentration at 1 h (in vivo; 1 h after oral CNP)?
A: 0.4 ± 0.23 ng/mL

Q: And the concentration at 1.5 h (in vivo; 1.5 h after oral CNP)?
A: 0.43 ± 0.32 ng/mL

Q: What about the concentration at 2 h (in vivo; 2 h after oral CNP) of the same compound?
A: 0.4 ± 0.14 ng/mL

Q: And the concentration at 3 h (in vivo; 3 h after oral CNP)?
A: 0.53 ± 0.4 ng/mL

Q: What about the concentration at 4 h (in vivo; 4 h after oral CNP) of the same compound?
A: 0.47 ± 0.13 ng/mL

Q: What about the concentration at 6 h (in vivo; 6 h after oral CNP) of the same compound?
A: 0.37 ± 0.17 ng/mL

Q: What about the concentration at 8 h (in vivo; 8 h after oral CNP) of the same compound?
A: 0.65 ± 0.2 ng/mL

Q: What about the concentration at 12 h (in vivo; 12 h after oral CNP) of the same compound?
A: 0.6 ± 0.36 ng/mL

Q: And the concentration at 24 h (in vivo; 24 h after oral CNP)?
A: 0.34 ± 0.12 ng/mL

Q: What about the concentration at 48 h (in vivo; 48 h after oral CNP) of the same compound?
A: 0.13 ± 0.04 ng/mL

Q: And the AUC(0-inf) (in vivo; po, 60 mg/kg)?
A: 16.7 ± 3.93 ng·h/mL

Q: And the AUC(0-t) (in vivo; po, 60 mg/kg)?
A: 14 ± 5.03 ng·h/mL

Q: What about the Cmax (in vivo; po, 60 mg/kg) of the same compound?
A: 0.78 ± 0.13 ng/mL

Q: And the Tmax (in vivo; po, 60 mg/kg)?
A: 4.71 ± 3.71 h

Q: And the half-life (in vivo; po, 60 mg/kg)?
A: 11.7 ± 2.09 h

Q: What about the concentration at 0.25 h (in vivo; po, 60 mg·kg^−1) of the same compound?
A: 0.56 ± 0.15 ng/mL

Q: And the concentration at 0.5 h (in vivo; po, 60 mg·kg^−1)?
A: 0.37 ± 0.12 ng/mL

Q: What about the concentration at 1 h (in vivo; po, 60 mg·kg^−1) of the same compound?
A: 0.44 ± 0.19 ng/mL

Q: And the concentration at 1.5 h (in vivo; po, 60 mg·kg^−1)?
A: 0.33 ± 0.21 ng/mL

Q: And the concentration at 2 h (in vivo; po, 60 mg·kg^−1)?
A: 0.21 ± 0.05 ng/mL

Q: What about the concentration at 3 h (in vivo; po, 60 mg·kg^−1) of the same compound?
A: 0.49 ± 0.29 ng/mL

Q: And the concentration at 4 h (in vivo; po, 60 mg·kg^−1)?
A: 0.34 ± 0.32 ng/mL

Q: And the concentration at 6 h (in vivo; po, 60 mg·kg^−1)?
A: 0.37 ± 0.13 ng/mL

Q: And the concentration at 8 h (in vivo; po, 60 mg·kg^−1)?
A: 0.63 ± 0.14 ng/mL

Q: And the concentration at 12 h (in vivo; po, 60 mg·kg^−1)?
A: 0.59 ± 0.27 ng/mL

Q: And the concentration at 24 h (in vivo; po, 60 mg·kg^−1)?
A: 0.22 ± 0.13 ng/mL

Q: What about the concentration at 48 h (in vivo; po, 60 mg·kg^−1) of the same compound?
A: 0.09 ± 0.01 ng/mL

Q: What about the IC50 at 15 min (CYP2C19; Sprague-Dawley, rat, pooled rat liver microsomes, pH 7.4, probe omeprazole (1.07 µM, in seven-probe cocktail), IC50 CYP2C19, single components, RLM 0.2 mg/mL, 15 min, triplicate, mean ± SD) of the same compound?
A: 78.1 ± 5.25 µM

Q: What about the “Response (% control) CYP2C19” value (CYP2C19; [3]) of the same compound?
A: 99.83 % control

Q: And the IC50 at 15 min (CYP2B6; Sprague-Dawley, rat, pooled rat liver microsomes, pH 7.4, probe bupropion (90 µM, in seven-probe cocktail), IC50 CYP2B6, single components, RLM 0.2 mg/mL, 15 min, triplicate, mean ± SD)?
A: 11 ± 0.87 µM

Q: What about the “Response (% control) CYP2B6” value (CYP2B6; [3]) of the same compound?
A: 98.23 % control

Q: What about the IC50 at 15 min (CYP2C9; Sprague-Dawley, rat, pooled rat liver microsomes, pH 7.4, probe tolbutamide (18 µM, in seven-probe cocktail), IC50 CYP2C9, single components, RLM 0.2 mg/mL, 15 min, triplicate, mean ± SD) of the same compound?
A: 36.5 ± 1.32 µM

Q: And the “Response (% control) CYP2C9” value (CYP2C9; [3])?
A: 96.27 % control

Q: What about the “Response (% control) CYP2D6” value (CYP2D6; 15 min, pH 7.4) of the same compound?
A: 99.88 % control

Q: What about the IC50 at 15 min (CYP2D6; microsomes, pH 7.4, IC50 CYP2D6) of the same compound?
A: 55.7 ± 6.08 µM

Q: What about the IC50 (CYP3A4; Sprague-Dawley, rat, microsomes, pH 7.4, IC50 CYP3A4, single components, RLM 0.2 mg/mL, 15 min, triplicate, mean ± SD) of the same compound?
A: 39.2 ± 4.57 µM

Q: And the “Response (% control) CYP3A4” value (CYP3A4; [3])?
A: 97.76 % control

Q: And the IC50 (CYP1A2; IC50 CYP1A2, single components, RLM 0.2 mg/mL, 15 min, triplicate, mean ± SD)?
A: 13.1 ± 8.24 µM

Q: What about the “Response (% control) CYP1A2” value (CYP1A2; [3]) of the same compound?
A: 98.46 % control

Q: What about the IC50 (CYP2E1 [1]) of the same compound?
A: 34.1 ± 4.76 µM

Q: What about the “Response (% control) CYP2E1” value (CYP2E1 [2]) of the same compound?
A: 99.57 % control
